Where “and” joins values, the source holds several entries; their conditions need not be identical. Identical values can stand only once.
Columns and labels:
[1] = biological target: T1, DRD4 (D4.4 variant) wild-type (Homo sapiens, UniProt P21917); test: Radioligand competition binding, [3H]-N-methylspiperone; details: DRD4; [3H]-methylspiperone (0.8-1.0 nM); read-out: Ki
T1 sequence (P21917 1-419): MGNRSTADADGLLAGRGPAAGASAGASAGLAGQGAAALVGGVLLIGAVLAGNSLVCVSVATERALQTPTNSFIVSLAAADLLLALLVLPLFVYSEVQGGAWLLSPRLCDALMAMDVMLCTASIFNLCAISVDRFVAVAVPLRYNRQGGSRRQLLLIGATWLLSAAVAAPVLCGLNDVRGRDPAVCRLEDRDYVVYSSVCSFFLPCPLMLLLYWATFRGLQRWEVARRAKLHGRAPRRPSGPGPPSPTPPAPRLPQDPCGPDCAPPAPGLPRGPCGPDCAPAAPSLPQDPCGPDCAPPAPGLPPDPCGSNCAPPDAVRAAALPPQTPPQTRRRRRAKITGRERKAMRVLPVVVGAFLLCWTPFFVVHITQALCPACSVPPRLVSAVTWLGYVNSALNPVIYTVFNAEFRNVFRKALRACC

[2] = biological target: DRD2 F1103.28A (Homo sapiens, UniProt P14416, F110A); assay type: binding; design: expressed in transfected cells; host or cells: HEK293T (ATCC CRL-11268); details: DRD2 F1103.28A
Chain of DRD2 F1103.28A (P14416 whole entry F110A): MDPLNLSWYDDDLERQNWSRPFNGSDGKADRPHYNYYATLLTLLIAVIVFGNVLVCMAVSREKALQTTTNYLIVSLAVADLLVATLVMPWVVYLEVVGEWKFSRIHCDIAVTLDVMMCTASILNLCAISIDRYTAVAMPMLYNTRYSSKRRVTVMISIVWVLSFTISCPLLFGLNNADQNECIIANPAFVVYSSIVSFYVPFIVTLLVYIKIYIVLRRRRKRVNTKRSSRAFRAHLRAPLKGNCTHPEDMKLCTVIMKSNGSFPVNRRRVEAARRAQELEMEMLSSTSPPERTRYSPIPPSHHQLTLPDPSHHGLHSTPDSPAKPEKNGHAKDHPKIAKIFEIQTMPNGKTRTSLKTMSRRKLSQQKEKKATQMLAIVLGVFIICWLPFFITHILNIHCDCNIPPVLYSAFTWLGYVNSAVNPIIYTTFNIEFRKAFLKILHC

[3] = biological target: T2, DRD4 (D4.4 variant) (Homo sapiens, UniProt P21917); test: Gαi/o-mediated cAMP inhibition (GloSensor); assay type: cell-based; details: DRD4; agonist, cAMP inhibition; read-out: EC50 ± SEM
T2 sequence (P21917 1-419): T1 sequence (P21917 1-419)

[4] = biological target: DRD2 (D2 long receptor) wild-type (Homo sapiens, UniProt P14416); test: Radioligand competition binding, [3H]-N-methylspiperone, HEK293T membranes
Chain of DRD2 (D2 long receptor) wild-type (P14416 whole entry): as the sequence (P14416 whole entry F110A) above, with A110F counted along it

[5] = biological target: DRD3 (Homo sapiens, UniProt P35462); test: β-arrestin2 recruitment (Tango); assay type: cell-based; details: DRD3; Tango; read-out: EC50 ± SEM
Chain of DRD3 (P35462 whole entry): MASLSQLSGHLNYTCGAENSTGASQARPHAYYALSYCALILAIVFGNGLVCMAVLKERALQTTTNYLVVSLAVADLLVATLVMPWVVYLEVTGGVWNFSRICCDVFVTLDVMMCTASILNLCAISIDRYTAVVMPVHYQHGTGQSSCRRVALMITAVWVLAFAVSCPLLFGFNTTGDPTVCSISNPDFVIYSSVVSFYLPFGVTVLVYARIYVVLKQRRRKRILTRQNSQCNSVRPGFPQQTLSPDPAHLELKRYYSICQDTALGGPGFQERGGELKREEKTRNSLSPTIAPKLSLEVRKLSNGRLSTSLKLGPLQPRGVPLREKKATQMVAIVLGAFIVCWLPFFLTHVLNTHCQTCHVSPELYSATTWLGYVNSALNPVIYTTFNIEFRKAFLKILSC

[6] = biological target: T3, DRD2 (D2 long receptor) (Homo sapiens, UniProt P14416); test: β-arrestin2 recruitment (Tango), HTLA cells; assay type: cell-based; details: for Response, Fig_S11c dose-response: individual replicates
T3 sequence (P14416 whole entry): as the sequence (P14416 whole entry F110A) above, with A110F counted along it

[7] = biological target: T3, DRD2 (D2 long receptor); test: Gαi/o-mediated cAMP inhibition (GloSensor split-luciferase cAMP reporter), HEK293T; assay type: cell-based; details: for Response, Fig_S11b dose-response: individual replicates;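 as to all read-outs here: compounds applied 15 min at room temperature, then luciferin plus 400 nM isoproterenol to raise cAMP through endogenous β2-adrenergic receptors, luminescence read 15 min later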
[8] = biological target: T2, DRD4 (D4.4 variant); test: β-arrestin2 recruitment (Tango); assay type: cell-based; details: DRD4; Tango; read-out: EC50 ± SEM
[9] = biological target: DRD3 wild-type (Homo sapiens, UniProt P35462); test: Radioligand competition binding, [3H]-N-methylspiperone
Chain of DRD3 wild-type (P35462 whole entry): as the sequence (P35462 whole entry) above

Ki [1]: > 10000 nM
pKi ± SEM [2]: 6.53±0.31
Ki ([2]; read-out: Ki): 300 nM
EC50 [3]: > 10000 nM
Ki ([4]; DRD2, [3H]-methylspiperone (0.8-1.0 nM), read-out: Ki): 2040 nM
pKi ± SEM ([4]; DRD2 wild-type): 5.69±0.06
EC50 [5]: > 10000 nM
Emax relative to quinpirole response ([6]; DRD2, Tango): 83.11%
EC50 ([6]; DRD2, β-arrestin2 recruitment (Tango), read-out: EC50 ± SEM): 557 ± 129 nM
Response, Fig_S11c dose-response ([6]; Log[Drug] -6.52): 31.2199 and 46.2944 and 28.6852
EC50 ([7]; DRD2, agonist, Gαi/o-mediated cAMP inhibition, read-out: EC50 ± SEM): 46.4 ± 15.4 nM
Emax relative to quinpirole response ([7]; DRD2, cAMP inhibition): 96.65%
Response, Fig_S11b dose-response ([7]; Log[Drug] -11): 6.507 and 4.611
EC50 [8]: > 10000 nM
Ki ([9]; DRD3, [3H]-methylspiperone (0.8-1.0 nM), read-out: Ki): 850 nM
pKi ± SEM ([9]; DRD3 wild-type): 6.07±0.01
Structure (SMILES): CCCCOc1cccc2cc(C(C)NCC3(O)CCCCC3)oc12.Cl (stereo not drawn) [O6LE6]
response, Fig_S11c dose-response source data ([6]; Fig_S11c, Log[Drug] -5, replicate values): 102.612 and 76.914 and 118.815 and 128.686 and 107.344 and 93.7459 and 91.4018 and 94.1354
Response, Fig_S11c dose-response ([6]; Log[Drug] -7): 11.3874 and 10.0089 and 10.6537 and 8.17 and 16.7384 and 23.3506 and 16.3825 and 16.4206 and 21.2486
Response, Fig_S11c dose-response ([6]; Log[Drug] -7.52): 2.983 and 1.764 and 4.002 and -3.309 and -7.696 and -0.6325 and 11.3698 and 6.994 and 12.6997
Response, Fig_S11c dose-response ([6]; Log[Drug] -8): 3.216 and 0.7671 and -0.1186 and 4.58 and -7.813 and 8.0383 and 4.755 and 0.516 and 2.286
Response, Fig_S11c dose-response ([6]; Log[Drug] -8.52): 2.679 and 1.071 and -1.473 and 0.4627 and -3.045 and 4.511 and 0.1556 and -1.011
Response, Fig_S11c dose-response ([6]; Log[Drug] -9): 0.7411 and 0.1816 and 1.971 and -2.53 and -2.659 and 6.978 and 2.24 and -0.7813 and 0.4791
Response, Fig_S11c dose-response ([6]; Log[Drug] -9.52): 1.675 and 0.3261 and 1.23 and 1.988 and 0.5154 and 6.132 and 2.922 and -0.3739 and -1.362
Response, Fig_S11c dose-response ([6]; Log[Drug] -10): 0.7745 and 3.454 and 0.4706 and -6.955 and -3.6985 and -1.1362 and 1.072 and 0.3907 and -1.333
Response, Fig_S11c dose-response ([6]; Log[Drug] -10.52): 0.1927 and 0.4854 and 0.3409 and -1.124 and 8.703 and 5.11 and 0.478 and 0.806 and 3.44
Response, Fig_S11c dose-response ([6]; Log[Drug] -11): 0.4891 and -0.1075 and 0.05188 and -6.3018 and 5.0836 and -3.93 and -2.3709 and 4.648 and -1.497
Response, Fig_S11c dose-response ([6]; Log[Drug] -11.52): 2.264 and 2.713 and 0.6374 and -3.324 and 3.804 and -6.217 and 0.5754 and 2.325 and 0.9369
Response, Fig_S11c dose-response ([6]; Log[Drug] -12): 0.04817 and -0.3928 and 5.406 and 4.214 and -4.302 and -2.66 and 3.553 and -0.8933
Response, Fig_S11b dose-response ([7]; Log[Drug] -5): 81.0159 and 81.9991 and 95.2013 and 90.5911 and 100.378 and 91.8314 and 90.3639 and 94.9855 and 86.3213
Response, Fig_S11b dose-response ([7]; Log[Drug] -5.52): 88.5768 and 95.2247 and 77.4579 and 98.4012 and 97.1899 and 97.626 and 96.6191 and 98.263 and 92.5248
Response, Fig_S11b dose-response ([7]; Log[Drug] -6): 91.3624 and 86.7743 and 72.7996 and 95.3198 and 99.2054 and 99.6124 and 91.2428 and 94.603 and 88.8234
Response, Fig_S11b dose-response ([7]; Log[Drug] -6.52): 80.2434 and 83.1695 and 87.1255 and 85.3392 and 85.0097 and 83.4496 and 88.4512 and 85.5769 and 83.1472
Response, Fig_S11b dose-response ([7]; Log[Drug] -7): 58.0056 and 50.7491 and 42.2987 and 73.1202 and 72.0543 and 69.6996 and 76.9851 and 77.9363 and 79.6216
Response, Fig_S11b dose-response ([7]; Log[Drug] -7.52): 45.2247 and 26.7088 and 25.0468 and 53.9826 and 53.3236 and 57.1802 and 56.5964 and 48.0046 and 46.7638
Response, Fig_S11b dose-response ([7]; Log[Drug] -8): 27.6217 and 13.9045 and 1.873 and 27.4516 and 30.7752 and 36.8798 and 38.172 and 42.1216 and 42.4628
Response, Fig_S11b dose-response ([7]; Log[Drug] -8.52): 12.8745 and -2.8324 and -17.6966 and 25 and 13.7985 and 29.6899 and 21.5778 and 11.2386 and 28.598
Response, Fig_S11b dose-response ([7]; Log[Drug] -9): 19.5459 and 15.9176 and 4.8221 and 21.5698 and 25.5426 and 29.7481 and 11.342 and 13.0583 and 27.4194
Response, Fig_S11b dose-response ([7]; Log[Drug] -11.52): 28.839 and 31.7182 and 13.2022 and 1.376 and -1.3857 and 16.4244 and 10.2357 and 2.895 and 29.146
Response, Fig_S11b dose-response ([7]; Log[Drug] -12): 23.5955 and 3.886 and -4.2135 and -2.9264 and -5.2713 and 2.829 and 6.638 and 20.6162
